Biological target: GST tagged truncated human mutant G2019S LRRK2 (Homo sapiens (Human), UniProt Q5S007, G2019S)
Experiment: LRRK2 Km ATP LanthaScreen Assay
Format: biochemical
Details: G2019S LRRK2, 134 μM ATP (Km ATP), mean values; for IC50: read-out: LRRK2 pIC50 (converted)
In short: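 Enzyme (GST-tagged, truncated) was preincubated with compound for 15 min at RT in 50 mM Tris pH 8.5, 10 mM MgCl2, 0.01% Brij-35, 1 mM EGTA, 2 mM DTT and 0.05 mM orthovanadate. Fluorescein-LRRKtide and 134 μM ATP (Km) were then added for 90 min. EDTA and Tb-anti-pERM antibody stopped the reaction; the TR-FRET 520/495 ratio gave 4-parameter IC50s, reported as mean pIC50.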

Sequence of GST tagged truncated human mutant G2019S LRRK2 (Q5S007 970-2527 G2019S): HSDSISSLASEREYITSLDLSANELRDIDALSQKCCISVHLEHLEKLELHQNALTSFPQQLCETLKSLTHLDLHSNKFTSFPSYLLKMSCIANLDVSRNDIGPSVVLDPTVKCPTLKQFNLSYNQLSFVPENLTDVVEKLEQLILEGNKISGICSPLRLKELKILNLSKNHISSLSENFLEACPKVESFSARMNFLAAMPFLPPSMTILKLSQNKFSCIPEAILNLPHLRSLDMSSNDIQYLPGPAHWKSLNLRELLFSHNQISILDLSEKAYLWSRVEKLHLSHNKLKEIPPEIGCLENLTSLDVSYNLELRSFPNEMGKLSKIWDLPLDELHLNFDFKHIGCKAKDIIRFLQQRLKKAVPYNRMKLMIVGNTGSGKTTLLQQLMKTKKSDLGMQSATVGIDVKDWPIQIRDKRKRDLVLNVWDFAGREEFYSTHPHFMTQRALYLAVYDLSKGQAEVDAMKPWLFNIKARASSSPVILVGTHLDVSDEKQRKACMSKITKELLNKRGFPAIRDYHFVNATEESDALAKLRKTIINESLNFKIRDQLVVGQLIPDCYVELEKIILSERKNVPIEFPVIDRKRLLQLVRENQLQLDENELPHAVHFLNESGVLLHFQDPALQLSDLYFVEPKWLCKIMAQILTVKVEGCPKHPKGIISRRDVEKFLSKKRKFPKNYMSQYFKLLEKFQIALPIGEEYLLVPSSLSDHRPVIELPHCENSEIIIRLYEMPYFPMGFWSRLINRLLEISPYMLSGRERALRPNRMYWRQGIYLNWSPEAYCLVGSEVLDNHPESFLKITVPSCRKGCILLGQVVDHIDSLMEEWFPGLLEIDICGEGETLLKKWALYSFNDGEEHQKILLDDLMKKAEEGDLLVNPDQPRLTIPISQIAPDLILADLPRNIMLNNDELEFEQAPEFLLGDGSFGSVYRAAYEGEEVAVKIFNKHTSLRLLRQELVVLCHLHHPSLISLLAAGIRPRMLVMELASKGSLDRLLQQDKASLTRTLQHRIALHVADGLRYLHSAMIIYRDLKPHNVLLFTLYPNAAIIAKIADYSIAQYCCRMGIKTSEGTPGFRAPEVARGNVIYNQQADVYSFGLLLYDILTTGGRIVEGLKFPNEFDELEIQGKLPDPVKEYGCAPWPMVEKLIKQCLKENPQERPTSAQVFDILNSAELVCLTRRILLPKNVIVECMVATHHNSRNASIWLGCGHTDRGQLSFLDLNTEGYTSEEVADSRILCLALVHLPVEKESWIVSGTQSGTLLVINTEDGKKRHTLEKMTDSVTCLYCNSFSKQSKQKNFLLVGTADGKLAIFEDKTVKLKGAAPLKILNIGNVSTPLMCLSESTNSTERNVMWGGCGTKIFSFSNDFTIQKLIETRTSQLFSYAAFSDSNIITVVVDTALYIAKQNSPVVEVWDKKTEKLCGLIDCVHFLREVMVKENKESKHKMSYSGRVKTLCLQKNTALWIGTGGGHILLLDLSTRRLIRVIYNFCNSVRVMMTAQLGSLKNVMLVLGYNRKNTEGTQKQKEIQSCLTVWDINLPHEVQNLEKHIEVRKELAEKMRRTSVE

Row | SMILES | LRRK2 pIC50 | IC50 [nM]
1 | CC(n1ncc(Nc2ncc3cc(Cl)c([C@H]4CCN(C)C[C@@H]4F)cc3n2)c1Cl)C(C)(C)O (single isomer, unassigned) [Ex-4.68, (R)(3S,4S) or (R)(3R,4R) or (S)(3S,4S) or (S)(3R,4R) 3-(5-chloro-4-{[6-chloro-7-(3-fluoro-1-methylpiperidin-4-yl)quinazolin-2-yl]amino}-1H-pyrazol-1-yl)-2-methylbutan-2-ol] | 8.92 | 
2 | CC(n1ncc(Nc2ncc3cc(Cl)c([C@@H]4CCN(C5COC5)C[C@H]4F)cc3n2)c1Cl)C(C)(C)O (single isomer, unassigned) [Ex-4.69, (R)(3S,4S) or (R)(3R,4R) or (S)(3S,4S) or (S)(3R,4R) 3-[5-chloro-4-({6-chloro-7-[3-fluoro-1-(oxetan-3-yl)piperidin-4-yl]quinazolin-2-yl}amino)-1H-pyrazol-1-yl]-2-methylbutan-2-ol] | 9.13 | 
3 | CC1OCC1N1CC[C@@H](c2cc3nc(Nc4cnn(CC(C)(C)O)c4Cl)ncc3cc2Cl)[C@H](F)C1 (single isomer, unassigned) [Ex-4.70, (3S,4S)(2R,3R) or (3S,4S)(2S,3S) or (3R,4R)(2R,3R) or (3R,4R)(2S,3S) or (3R,4R)(2S,3R) or (3R,4R)(2R,3S) or (3S,4S)(2S,3R) or (3S,4S)(2R,3S) 1-[5-chloro-4-({6-chloro-7-[3-fluoro-1-(2-methyloxetan-3-yl)piperidin-4-yl]quinazolin-2-yl}amino)-1H-pyrazol-1-yl]-2-methylpropan-2-ol] | 7.92 | 
4 | CC1OCC1N1CC[C@@H](c2cc3nc(Nc4cnn(CC(C)(C)O)c4Cl)ncc3cc2Cl)[C@H](F)C1 (single isomer, unassigned) [Ex-4.71, (3S,4S)(2R,3R) or (3S,4S)(2S,3S) or (3R,4R)(2R,3R) or (3R,4R)(2S,3S) or (3R,4R)(2S,3R) or (3R,4R)(2R,3S) or (3S,4S)(2S,3R) or (3S,4S)(2R,3S) 1-[5-chloro-4-({6-chloro-7-[3-fluoro-1-(2-methyloxetan-3-yl)piperidin-4-yl]quinazolin-2-yl}amino)-1H-pyrazol-1-yl]-2-methylpropan-2-ol] | 7.74 | 
5 | CC1OCC1N1CC[C@H](c2cc3nc(Nc4cnn(CC(C)(C)O)c4Cl)ncc3cc2Cl)[C@@H](F)C1 (single isomer, unassigned) [Ex-4.73, (3S,4S)(2R,3R) or (3S,4S)(2S,3S) or (3R,4R)(2R,3R) or (3R,4R)(2S,3S) or (3R,4R)(2S,3R) or (3R,4R)(2R,3S) or (3S,4S)(2S,3R) or (3S,4S)(2R,3S) 1-[5-chloro-4-({6-chloro-7-[3-fluoro-1-(2-methyloxetan-3-yl)piperidin-4-yl]quinazolin-2-yl}amino)-1H-pyrazol-1-yl]-2-methylpropan-2-ol] | 9.13 | 
6 | CC1OCC1N1CC[C@H](c2cc3nc(Nc4cnn(CC(C)(C)O)c4Cl)ncc3cc2Cl)[C@@H](F)C1 (single isomer, unassigned) [Ex-4.74, (3S,4S)(2R,3R) or (3S,4S)(2S,3S) or (3R,4R)(2R,3R) or (3R,4R)(2S,3S) or (3R,4R)(2S,3R) or (3R,4R)(2R,3S) or (3S,4S)(2S,3R) or (3S,4S)(2R,3S) 1-[5-chloro-4-({6-chloro-7-[3-fluoro-1-(2-methyloxetan-3-yl)piperidin-4-yl]quinazolin-2-yl}amino)-1H-pyrazol-1-yl]-2-methylpropan-2-ol] | 9.19 | 
7 | CC1OCC1N1CCC(c2cc3nc(Nc4cnn(CC(C)(C)O)c4Cl)ncc3cc2Cl)CC1 (single isomer, unassigned) [Ex-4.75, (2R,3R) or (2S,3S) or (2S,3R) or (2R,3S) 1-[5-chloro-4-({6-chloro-7-[1-(2-methyloxetan-3-yl)piperidin-4-yl]quinazolin-2-yl}amino)-1H-pyrazol-1-yl]-2-methylpropan-2-ol] | 8.14 | 
8 | CC1OCC1N1CCC(c2cc3nc(Nc4cnn(CC(C)(C)O)c4Cl)ncc3cc2Cl)CC1 (single isomer, unassigned) [Ex-4.76, (2R,3R) or (2S,3S) or (2S,3R) or (2R,3S) 1-[5-chloro-4-({6-chloro-7-[1-(2-methyloxetan-3-yl)piperidin-4-yl]quinazolin-2-yl}amino)-1H-pyrazol-1-yl]-2-methylpropan-2-ol] | >9.20 | 
9 | CC(C)(O)Cn1ncc(Nc2ncc3cc(Cl)c(C4CCN(C5CCOC5)CC4)cc3n2)c1Cl (single isomer, unassigned) [Ex-4.77, (S) or (R) 1-[5-chloro-4-({6-chloro-7-[1-(oxolan-3-yl)piperidin-4-yl]quinazolin-2-yl}amino)-1H-pyrazol-1-yl]-2-methylpropan-2-ol] |  | 1.82
10 | CC(C)(O)Cn1ncc(Nc2ncc3cc(Cl)c(C4CCN(C5CCOC5)CC4)cc3n2)c1Cl (single isomer, unassigned) [Ex-4.79, (S) or (R) 1-[5-chloro-4-({6-chloro-7-[1-(oxolan-3-yl)piperidin-4-yl]quinazolin-2-yl}amino)-1H-pyrazol-1-yl]-2-methylpropan-2-ol] |  | < 0.631
11 | Cc1cc2cnc(Nc3cnn(CC(C)(C)O)c3Cl)nc2cc1[C@@H]1CCN(C2COC2)C[C@H]1F (single isomer, unassigned) [Ex-4.81, (3S,4S) or (3R,4R) 1-[5-chloro-4-({7-[3-fluoro-1-(oxetan-3-yl)piperidin-4-yl]-6-methylquinazolin-2-yl}amino)-1H-pyrazol-1-yl]-2-methylpropan-2-ol] | 9.13 | 
12 | Cc1cc2cnc(Nc3cnn(C4CC4)c3Cl)nc2cc1[C@@H]1CCN(C2COC2)C[C@H]1F (single isomer, unassigned) [Ex-4.82, (3S,4S) or (3R,4R) N-(5-chloro-1-cyclopropyl-1H-pyrazol-4-yl)-7-[3-fluoro-1-(oxetan-3-yl)piperidin-4-yl]-6-methylquinazolin-2-amine] | >9.20 | 
13 | Cc1cc2cnc(Nc3cnn(CC(C)(C)O)c3Cl)nc2cc1[C@H]1CCN(C2COC2)C[C@@H]1F (single isomer, unassigned) [Ex-4.83, (3S,4S) or (3R,4R) 1-[5-chloro-4-({7-[3-fluoro-1-(oxetan-3-yl)piperidin-4-yl]-6-methylquinazolin-2-yl}amino)-1H-pyrazol-1-yl]-2-methylpropan-2-ol] | 9.14 | 
14 | Cc1cc2cnc(Nc3cnn(C4CC4)c3Cl)nc2cc1[C@H]1CCN(C2COC2)C[C@@H]1F (single isomer, unassigned) [Ex-4.85, (3S,4S) or (3R,4R) N-(5-chloro-1-cyclopropyl-1H-pyrazol-4-yl)-7-[3-fluoro-1-(oxetan-3-yl)piperidin-4-yl]-6-methylquinazolin-2-amine] | 8.76 | 
15 | Cc1nsc(Nc2ncc3cc(Cl)c([C@@H]4CCN(C5COC5)C[C@H]4F)cc3n2)c1Cl (single isomer, unassigned) [Ex-4.87, (3S,4S) or (3R,4R) 6-chloro-N-(4-chloro-3-methyl-1,2-thiazol-5-yl)-7-[3-fluoro-1-(oxetan-3-yl)piperidin-4-yl]quinazolin-2-amine] |  | 12.6
16 | Cc1nsc(Nc2ncc3cc(Cl)c([C@@H]4CCN(C5COC5)C[C@H]4F)cc3n2)c1Cl (single isomer, unassigned) [Ex-4.88, (3S,4S) or (3R,4R) 6-chloro-N-(4-chloro-3-methyl-1,2-thiazol-5-yl)-7-[3-fluoro-1-(oxetan-3-yl)piperidin-4-yl]quinazolin-2-amine] |  | 3.8

— US12540131B2 (Merck Sharp & Dohme LLC, priority 2019, dated 2026)
